Measurements published in US10723746B2, “Oxazolidinone-quinolone hybrid antibacterials for the parenteral treatment or prophylaxis of bacterial diseases” (MORPHOCHEM AKTIENGESELLSCHAFT FÜR KOMBINATORISCHE CHEMIE, priority 2013, dated 2020).
Values after ≈ are worked out from the molar mass of the structure shown. Structures can show the parent of a compound that is named as a salt. Where two headings read alike, the source gives them in different places.

Legend:
[1] = system: anaerobes, in particular Gram-positive anaerobes; details: cited from earlier work
[2] = in vivo; cited from earlier work
[3] = First-in-Man study: iv. bolus or 20 min infusion of Compound 1; type: in vivo, humans; details: for AUC / Cmax: male, human, plasma, mean
Method: Volunteers were administered doses of up to 3.0 mg/kg body weight (BW) of Compound 1 given as iv. bolus injection of 2 min duration. Additionally, doses of 1.5 and 3.0 mg/kg BW of Compound 1 were administered as a short-term infusion of 20 min duration, resulting in infusion rates of 4.5 and 9.0 mg/(kg BW×h), respectively.

[4] = Solubility in aqueous media; type: physicochemical
[5] = system: Enterococcus faecalis ATCC 29212; experiment: MIC testing according to CLSI guidelines; type: cell-based; details: ATCC29212
Excerpt: (§1) MIC testing was done according to CLSI (formerly NCCLS) guidelines: Performance Standards for Antimicrobial Susceptibility Testing 11th Informational Supplement, Vol. 21 No 1, M100-S11, January 2001. NCCLS. Revised edition: 17th Informational Supplement, Vol. 27 No 1, […], January 2007.

[6] = system: Enterococcus faecalis ATCC 51299; experiment: MIC testing according to CLSI guidelines; type: cell-based; details: ATCC51299
Excerpt: as §1

[7] = system: Staphylococcus aureus ATCC 29213; experiment: MIC testing according to CLSI guidelines; type: cell-based; details: ATCC29213
Excerpt: as §1

[8] = system: Staphylococcus aureus ATCC 33593; experiment: MIC testing according to CLSI guidelines; type: cell-based; details: ATCC33593
Excerpt: as §1

[9] = system: Staphylococcus aureus ATCC 43300; experiment: MIC testing according to CLSI guidelines; type: cell-based; details: ATCC43300
Excerpt: as §1

[10] = system: Staphylococcus aureus NRS 120; experiment: MIC testing according to CLSI guidelines; type: cell-based; details: NRS120
Excerpt: as §1

[11] = system: Staphylococcus aureus Visa Mu 50; experiment: MIC testing according to CLSI guidelines; type: cell-based
Excerpt: as §1

[12] = system: Streptococcus pneumoniae ATCC 33400; experiment: MIC testing according to CLSI guidelines; type: cell-based; details: ATCC33400
Excerpt: as §1

Clostridium spp. = experiment: Fecal microflora viable counts after i.v. infusions in healthy volunteers; type: in vivo, human
Method: (§2) Healthy human volunteers received i.v. infusions of Compound 1 at a dose of 6 mg/kg body weight over 12 hours for 5 consecutive days. […] Viable counts of lactobacilli were reduced from predose to Day 5 by 4.0 log 10 CFU/g. […] Likewise, enterococci were reduced from predose to Day 5 by 3.8 log 10 CFU/g on average.

bifidobacteria = experiment: as above; type: in vivo, human; details: Compound 1 i.v. 6 mg/kg over 12 hours for 5 days
Method: as §2

enterococci = experiment: as above; type: in vivo, human; details: Compound 1 i.v. 6 mg/kg over 12 hours for 5 days
Method: as §2

lactobacilli = experiment: as above; type: in vivo, human; details: Compound 1 i.v. 6 mg/kg over 12 hours for 5 days
Method: as §2

Gram-negative species = experiment: Fecal microflora after i.v. infusions in healthy volunteers; type: in vivo, human; details: Compound 1 i.v. 6 mg/kg over 12 hours for 5 days
Method: as §2

Clostridium difficile = experiment: Antimicrobial susceptibility of 114 C. difficile strains by agar dilution method; type: cell-based; details: for MIC50: Clostridioides difficile, read-out: MIC50
Method: One hundred fourteen Clostridium difficile strains were collected from 67 patients and analyzed for the presence of C. difficile toxin B by the cell cytotoxicity neutralization assay, genes for toxin A, toxin B, binary toxin and TcdC deletion by PCR. All strains were also PCR-ribotyped. The MICs of the isolates were determined against Compound 2 by the agar dilution method. All isolates were positive for toxin B. One hundred thirteen isolates were positive for toxin A and B genes. In addition, 13 isolates were positive for the binary toxin genes. Thirty-two different ribotypes were identified. No strain of ribotype 027 was found.
One hundred fourteen C. difficile strains were selected from patients (26 males and 41 females) with primary and/or recurrent CDI. The mean age of the patients was 74 years (age range 19-97 years). The strains (67 primary and 47 recurrent isolates) were identified by characteristic colony morphology, typical smell and Gram staining. Gas chromatography was used to detect volatile, short chain fatty acids production by the C. difficile strains for the final identification.
The antimicrobial susceptibility of the C. difficile strains was determined according to CLSI guidelines by the agar dilution method using Bacteroides fragilis ATCC 25285 and C. difficile ATCC 700057 as reference strains [CLSI. Methods for Antimicrobial Susceptibility Testing of Anaerobic Bacteria; Approved Standard-Eighth Edition. 2012].
MIC was defined as the lowest concentration of the drug that inhibited growth completely. MIC50/90 corresponds to the concentrations that inhibit the growth of 50% and 90%, of the strains tested, respectively.
PCR ribotype profiles from clinical isolates were compared to those profiles which define the database by maximum matching with Pearson correlation. IBM SPSS Statistics 22 (Armonk, N.Y., USA) software was used to calculate the percentiles 50 and 90 of the MIC results. Descriptive statistics were used to summarize the results.

[13] = system: Clostridium difficile infections (CDI); details: oral administration; cited from earlier work
C difficile [14] = details: cited from earlier work
C difficile [15] = details: cited from earlier work; remark: listed apart in the source
[16] = cited from earlier work
[17] = intravenous, Drug after 3.0 mg/kg BW Compound 1, 20 min infusion, 9.0 mg/(kg BW·h)
[18] = Drug after 3.0 mg/kg BW Compound 1 iv. bolus
[19] = 114 C. difficile strains, agar dilution

## O=C(O)c1cn(C2CC2)c2cc(N3CCNCC3)c(F)cc2c1=O [Ciprofloxacin]
[1]
  Activity in vitro against anaerobes: neither active in vitro
[2]
  Fecal concentrations: high

## CC(=O)NC[C@H]1CN(c2ccc(OCC3(OP(=O)(O)O)CCN(c4cc5c(cc4F)c(=O)c(C(=O)O)cn5C4CC4)CC3)c(F)c2)C(=O)O1 [Compound 1, sodium salt of 7-(4-{4-[(5S)-5-(Acetylamino-methyl)-2-oxo-oxazolidin-3-yl]-2-fluoro-phenoxymethyl}-4-phosphonooxy-piperidin-1-yl)-1-cyclopropyl-6-fluoro-4-oxo-1,4-dihydro-quinoline-3-carboxylic acid]
[3]; 3.0 mg/kg BW
  AUC of the Prodrug, 20 min infusion compared to bolus administration: lower AUC
[3]; humans, all doses applied
  Conversion of the Prodrug to the Drug: very rapid conversion
[4]
  Solubility in aqueous media: very good solubility

## CC(=O)NC[C@H]1CN(c2ccc(OCC3(O)CCN(c4cc5c(cc4F)c(=O)c(C(=O)O)cn5C4CC4)CC3)c(F)c2)C(=O)O1 [Compound 2, 7-(4-{4-[(5S)-5-(Acetylamino-methyl)-2-oxo-oxazolidin-3-yl]-2-fluoro-phenoxymethyl}-4-hydroxy-piperidin-1-yl)-1-cyclopropyl-6-fluoro-4-oxo-1,4-dihydro-quinoline-3-carboxylic acid]
[5]
  MIC: 0.25 µg/mL (≈ 0.399 µM)
[6]
  MIC: 0.25 µg/mL (≈ 0.399 µM)
[7]
  MIC: 0.5 µg/mL (≈ 0.798 µM)
[8]
  MIC: 0.25 µg/mL (≈ 0.399 µM)
[9]
  MIC: 0.5 µg/mL (≈ 0.798 µM)
[10]
  MIC: 2 µg/mL (≈ 3.19 µM)
[11]
  MIC: 0.5 µg/mL (≈ 0.798 µM)
[12]
  MIC: 0.03 µg/mL (≈ 0.0479 µM)
[3]; [17]
  AUC: 3230 ng·h/mL
  Cmax: 3180 ng/mL
[3]; [18]
  AUC: 2170 ng·h/mL
  Cmax: 2450 ng/mL
Clostridium spp.; Compound 1 i.v. 6 mg/kg over 12 hours for 5 days
  Reduction of viable counts of Clostridium spp. from predose to Day 5: 3.0 log 10 CFU/g
Clostridium spp.; all except one of the volunteers
  Viable counts of Clostridium spp. until Day 3 postdose: reduced below the limit of detection
bifidobacteria
  Reduction of viable counts of bifidobacteria from predose to Day 5: 7.9 log 10 CFU/g
enterococci
  Reduction of enterococci from predose to Day 5, on average: 3.8 log 10 CFU/g
lactobacilli
  Reduction of viable counts of lactobacilli from predose to Day 5: 4.0 log 10 CFU/g
Gram-negative species
  Effect of exposure of the fecal flora on Gram-negative species: did not affect
Clostridium difficile; 114 C. difficile isolates, agar dilution
  MIC range: 0.008-0.5 mg/1
Clostridium difficile; [19]
  MIC90: 0.064 mg/1
  MIC range: 0.008 to 0.5 mg/L
  MIC50: 0.032 µg/mL (≈ 0.0511 µM)
Clostridium difficile
  MIC50: 0.064 µg/mL (≈ 0.102 µM)
Clostridium difficile; all 114 isolates
  Susceptibility of the C. difficile isolates: sensitive

## CCc1c(Cl)c(O)c(Cl)c(O)c1C(=O)O[C@H]1[C@H](O)[C@H](OC)[C@H](OC/C2=C\C=C\C[C@H](O)/C(C)=C/[C@H](CC)[C@@H](O[C@@H]3OC(C)(C)[C@@H](OC(=O)C(C)C)[C@H](O)[C@@H]3O)/C(C)=C/C(C)=C/C[C@@H]([C@@H](C)O)OC2=O)O[C@@H]1C [fidaxomicin]
[13]
  Frequency of recurrence of CDI: approximately 13%

## CC(=O)NC[C@H]1CN(c2ccc(N3CCOCC3)c(F)c2)C(=O)O1 [linezolid]
C difficile [14]
  Activity in vitro against C difficile: active
C difficile [15]
  Activity in an in vitro human gut model: inactive
[2]
  Fecal concentrations: negligibly low
  Fraction of the dose excreted via the feces: 0.2 % of the dose

## Cc1ncc([N+](=O)[O-])n1CCO [metronidazole]
[16]
  Toxicity associated with long term treatment: neurotoxicity

## CN[C@H](CC(C)C)C(=O)N[C@H]1C(=O)N[C@@H](CC(N)=O)C(=O)N[C@H]2C(=O)N[C@H]3C(=O)N[C@H](C(=O)N[C@H](C(=O)O)c4cc(O)cc(O)c4-c4cc3ccc4O)[C@H](O)c3ccc(c(Cl)c3)Oc3cc2cc(c3O[C@@H]2O[C@H](CO)[C@@H](O)[C@H](O)[C@H]2O[C@H]2C[C@](C)(N)[C@H](O)[C@H](C)O2)Oc2ccc(cc2Cl)[C@H]1O [vancomycin]
[16]
  Toxicity associated with long term treatment: nephrotoxicity
